These results are taken from PubChem BioAssay (NCI).

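How tested: cells in 96-well plates exposed to compound for 48 hours at five concentrations. Definition used: TGI = concentration required for complete inhibition of growth.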

Test systems include A498 renal; A549 NSCLC; COLO 205 colon; EKVX NSCLC; HL-60(TB) leukemia; HOP-92 NSCLC; K-562 leukemia; LOX IMVI melanoma; NCI-H226 lung; NCI-H23 lung; NCI-H460 lung; OVCAR-3 ovarian; RXF 393 renal; SK-MEL-5 melanoma; SK-OV-3 ovarian; SW-620 colon; DU-145 prostate; MDA-MB-231 breast; PC-3 prostate; SR leukemia.
Test in all cases: NCI tumour cell line growth inhibition, 48 h

In the case of `CCC1=CC2CN3CCc4c([nH]c5ccccc45)C(C(=O)OC)(C2)C13` (stereo not drawn), the TGI in the assay on A498 renal stood at 108 µM; in the assay on A549 NSCLC, 82.5 µM; in the assay on COLO 205 colon, 80.6 µM; with EKVX NSCLC it was 78.2 µM; in the assay on HL-60(TB) leukemia it was 125 µM; in the assay with HOP-92 NSCLC, 33.9 µM. For the same molecule, the TGI with K-562 leukemia was 202 µM; in the assay on LOX IMVI melanoma, 121 µM; with NCI-H226 lung, 23.4 µM; in the assay with NCI-H23 lung, 100 µM; in the assay with NCI-H460 lung, 102 µM; in the assay with OVCAR-3 ovarian, 107 µM. For the same molecule, the TGI stood at 78.7 µM with RXF 393 renal, 79.4 µM in the assay with SK-MEL-5 melanoma, 134 µM in the assay with SK-OV-3 ovarian and 82.7 µM with SW-620 colon.

For `CC1(C23CC4CC(CC(C4)C2)C3)n2c(=O)n(-c3ccccc3)c(=O)n2C1(C)C12CC3CC(CC(C3)C1)C2` (stereo not drawn), the TGI in the assay on A498 renal, in the assay on A549 NSCLC, with COLO 205 colon, with DU-145 prostate, with EKVX NSCLC and in the assay on HL-60(TB) leukemia was above 100 µM each time. The TGI in the assay with HOP-92 NSCLC, with K-562 leukemia, in the assay with MDA-MB-231 breast, with NCI-H226 lung, with NCI-H23 lung and with NCI-H460 lung was above 100 µM each time. The TGI in the assay with OVCAR-3 ovarian, in the assay on PC-3 prostate, in the assay with SK-MEL-5 melanoma, in the assay on SK-OV-3 ovarian, in the assay with SR leukemia and in the assay on SW-620 colon was above 100 µM in each case.

For the molecule `CCOC(=O)c1csc(NC(=O)CCN2CCCCC2)n1`, the TGI with A498 renal, in the assay with A549 NSCLC, in the assay on COLO 205 colon, in the assay with DU-145 prostate, in the assay on EKVX NSCLC and in the assay on HL-60(TB) leukemia was above 100 µM each time. In addition, the TGI in the assay on HOP-92 NSCLC, with K-562 leukemia, in the assay on LOX IMVI melanoma, in the assay on MDA-MB-231 breast, in the assay on NCI-H23 lung and in the assay on NCI-H460 lung was above 100 µM each time. The TGI with OVCAR-3 ovarian, in the assay with PC-3 prostate, with RXF 393 renal, in the assay on SK-MEL-5 melanoma, in the assay with SK-OV-3 ovarian and with SR leukemia was above 100 µM in each case. The same molecule displayed a TGI with SW-620 colon above 100 µM.

As for `CN1C2CC(=O)CC1[C@H](O)[C@@H]2O`, the TGI in the assay on COLO 205 colon, with DU-145 prostate, with EKVX NSCLC, with HL-60(TB) leukemia, in the assay with K-562 leukemia and in the assay on LOX IMVI melanoma was above 100 µM each time. For the same molecule, the TGI in the assay with MDA-MB-231 breast, in the assay with NCI-H226 lung, with NCI-H23 lung, with NCI-H460 lung, in the assay with OVCAR-3 ovarian and in the assay on PC-3 prostate was above 100 µM throughout. In addition, the TGI with RXF 393 renal, in the assay on SR leukemia and with SW-620 colon was above 100 µM each time.
